Common to all, as to type: biochemical
Experiment [1] addresses T1, HDAC6 (Homo sapiens, UniProt Q9UBN7).
T1 sequence (Q9UBN7 1-1215): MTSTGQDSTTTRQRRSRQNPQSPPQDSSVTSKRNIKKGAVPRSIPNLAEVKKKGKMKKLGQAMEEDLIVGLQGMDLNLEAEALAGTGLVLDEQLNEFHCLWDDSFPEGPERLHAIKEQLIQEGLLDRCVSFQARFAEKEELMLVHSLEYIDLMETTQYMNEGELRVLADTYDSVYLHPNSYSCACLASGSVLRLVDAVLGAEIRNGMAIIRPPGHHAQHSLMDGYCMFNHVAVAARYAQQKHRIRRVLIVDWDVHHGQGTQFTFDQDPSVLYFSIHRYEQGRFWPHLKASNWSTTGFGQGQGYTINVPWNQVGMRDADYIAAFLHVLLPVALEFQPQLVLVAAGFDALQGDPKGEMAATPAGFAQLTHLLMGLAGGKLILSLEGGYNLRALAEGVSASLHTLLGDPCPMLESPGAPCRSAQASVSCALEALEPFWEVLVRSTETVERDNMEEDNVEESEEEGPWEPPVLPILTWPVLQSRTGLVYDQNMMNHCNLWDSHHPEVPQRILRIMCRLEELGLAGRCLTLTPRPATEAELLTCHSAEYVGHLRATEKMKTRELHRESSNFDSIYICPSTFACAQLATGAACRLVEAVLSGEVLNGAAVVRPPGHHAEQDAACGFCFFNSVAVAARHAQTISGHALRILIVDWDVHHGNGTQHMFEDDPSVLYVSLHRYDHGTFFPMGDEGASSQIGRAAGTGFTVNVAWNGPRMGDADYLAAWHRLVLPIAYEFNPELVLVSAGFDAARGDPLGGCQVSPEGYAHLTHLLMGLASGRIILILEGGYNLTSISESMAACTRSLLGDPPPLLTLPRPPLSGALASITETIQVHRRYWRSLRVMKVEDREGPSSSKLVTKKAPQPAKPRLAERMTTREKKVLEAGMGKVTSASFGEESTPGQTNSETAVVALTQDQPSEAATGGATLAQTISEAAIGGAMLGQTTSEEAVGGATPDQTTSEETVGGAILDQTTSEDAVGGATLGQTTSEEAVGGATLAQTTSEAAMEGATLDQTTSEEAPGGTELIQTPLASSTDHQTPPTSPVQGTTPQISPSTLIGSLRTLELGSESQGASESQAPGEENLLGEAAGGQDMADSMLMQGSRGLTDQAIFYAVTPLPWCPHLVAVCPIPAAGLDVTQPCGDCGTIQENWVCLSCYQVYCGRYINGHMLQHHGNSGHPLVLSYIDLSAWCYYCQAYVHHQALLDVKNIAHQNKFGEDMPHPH
In words: HDAC enzymatic assay, fluorescence-labeled substrate. As to conditions: for inhibition at 10 µM: source data of Fig. 1B; for IC50: read-out: IC50.

Experiment [2] addresses T2, HDAC10 (Homo sapiens, UniProt Q969S8).
T2 construct: purchased Eurofins (contracted assay service)
T2 sequence (Q969S8 1-669): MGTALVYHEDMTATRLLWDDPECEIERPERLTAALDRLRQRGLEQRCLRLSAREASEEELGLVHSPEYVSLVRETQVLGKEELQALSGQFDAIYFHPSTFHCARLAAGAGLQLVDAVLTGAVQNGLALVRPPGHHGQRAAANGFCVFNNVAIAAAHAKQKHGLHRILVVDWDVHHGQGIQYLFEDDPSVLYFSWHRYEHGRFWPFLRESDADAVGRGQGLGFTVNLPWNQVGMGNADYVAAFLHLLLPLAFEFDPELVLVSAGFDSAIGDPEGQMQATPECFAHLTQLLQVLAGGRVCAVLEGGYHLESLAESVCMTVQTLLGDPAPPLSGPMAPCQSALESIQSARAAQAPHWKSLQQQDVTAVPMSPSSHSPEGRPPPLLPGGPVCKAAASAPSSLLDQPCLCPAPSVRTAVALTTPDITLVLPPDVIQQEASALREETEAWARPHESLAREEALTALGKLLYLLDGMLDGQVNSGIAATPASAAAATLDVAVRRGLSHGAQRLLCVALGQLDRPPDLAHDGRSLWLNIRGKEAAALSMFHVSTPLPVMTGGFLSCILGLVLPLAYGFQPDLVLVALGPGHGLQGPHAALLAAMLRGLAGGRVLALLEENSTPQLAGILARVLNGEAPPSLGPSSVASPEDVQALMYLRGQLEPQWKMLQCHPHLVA
Description: HDAC assay (Eurofins).

The target of experiment [3] is T3, HDAC7 (Homo sapiens, UniProt Q8WUI4).
T3 construct: purchased Eurofins (contracted assay service)
T3 sequence (Q8WUI4 1-952): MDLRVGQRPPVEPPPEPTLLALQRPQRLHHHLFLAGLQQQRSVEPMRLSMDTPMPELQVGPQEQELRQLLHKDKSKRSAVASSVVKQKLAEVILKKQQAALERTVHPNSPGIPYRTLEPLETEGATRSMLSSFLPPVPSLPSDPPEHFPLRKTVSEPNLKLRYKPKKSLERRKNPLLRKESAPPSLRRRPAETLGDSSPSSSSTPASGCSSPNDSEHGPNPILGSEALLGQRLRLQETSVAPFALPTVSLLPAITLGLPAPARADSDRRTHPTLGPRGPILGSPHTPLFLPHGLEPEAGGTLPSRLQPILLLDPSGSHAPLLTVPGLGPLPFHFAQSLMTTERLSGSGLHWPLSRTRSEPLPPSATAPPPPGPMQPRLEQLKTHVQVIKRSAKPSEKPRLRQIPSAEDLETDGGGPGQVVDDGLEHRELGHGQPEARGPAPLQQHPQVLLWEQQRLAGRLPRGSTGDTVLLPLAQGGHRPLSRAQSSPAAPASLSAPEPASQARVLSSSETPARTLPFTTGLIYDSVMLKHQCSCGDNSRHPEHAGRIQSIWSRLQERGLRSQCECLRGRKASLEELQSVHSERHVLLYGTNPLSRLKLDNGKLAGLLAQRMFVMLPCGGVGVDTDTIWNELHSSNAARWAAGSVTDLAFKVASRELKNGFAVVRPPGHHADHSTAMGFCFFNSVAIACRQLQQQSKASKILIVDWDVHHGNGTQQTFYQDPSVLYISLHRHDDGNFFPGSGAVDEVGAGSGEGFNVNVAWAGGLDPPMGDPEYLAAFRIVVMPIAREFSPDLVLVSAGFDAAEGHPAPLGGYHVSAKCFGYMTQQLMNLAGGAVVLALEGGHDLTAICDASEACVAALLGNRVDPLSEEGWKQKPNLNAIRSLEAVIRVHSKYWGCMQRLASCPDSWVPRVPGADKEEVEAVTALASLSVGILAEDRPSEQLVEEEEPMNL
In words: HDAC assay (Eurofins).

Data on 2 compounds can be found in paper PMC11219871, “Epigenetic-based differentiation therapy for Acute Myeloid Leukemia” (Nature Communications, 2024).

For `COc1cc2nc(-c3cc(C)oc3C)cc(NCC3CCN(c4ncc(C(=O)NO)cn4)CC3)c2cc1OC` [CM-1758, 2-[4-[[[2-(2,5-dimethyl-3-furyl)-6,7-dimethoxy-4-quinolyl]amino]methyl] -1-piperidyl]pyrimidine-5-carbohydroxamic acid], the inhibition (in general, the change of the read-out against control, counted positive when it falls) at 10 µM in experiment [1] came out at 90%; in experiment [2] it was 98%; in experiment [3] it was 89%. The values for the IC50 in experiment [1], in experiment [2] and in experiment [3] were 0.257 µM, 0.029 µM and 0.12 µM, respectively.
As to `COc1cc2nc(-c3ccc(C)o3)cc(NCC3CCN(c4ncc(C(=O)NO)cn4)CC3)c2cc1OC` [CM-444, 2-[4-[[[6,7-dimethoxy-2-(5-methyl-2-furyl)-4-quinolyl]amino]methyl]-1-piperidyl]pyrimidine-5-carbohydroxamic acid], the inhibition at 10 µM stood at 90% in experiment [1], 96% in experiment [2] and 89% in experiment [3]. The IC50 (in general, the point on the concentration scale where inhibition reaches its midpoint) in experiment [1] was 0.531 µM; in experiment [2] it was 0.015 µM; in experiment [3], 0.12 µM.
